The structures appear in SMILES notation. Several values for one entry are separate records, joined by “and”; a condition that tells them apart may be missing. Identical values can stand only once.

One may read the Ki as a dissociation constant, usually derived from enzyme kinetics or from competition with a known ligand. Higher therefore signals a looser hold on the target.

For the test, the target named is Glutamate receptor ionotropic, NMDA 1 (Rattus norvegicus, UniProt P35439).

In the case of `CC1(C2(C)COC(c3ccccc3)(c3ccccc3)O2)CCCCN1` (stereo unspecified) [CAS_4792-18-1], the Ki was 2.22 µM and 2.34 µM and > 10 µM and 3.79 µM.

The values above are taken from BindingDB's records for PubMed 3016248 (The Johns Hopkins University, 1986).
